In paper PMC4933725, “Traxoprodil, a selective antagonist of the NR2B subunit of the NMDA receptor, potentiates the antidepressant-like effects of certain antidepressant drugs in the forced swim test in mice” (Metabolic Brain Disease, 2016):
Structures can show the parent of a compound that is named as a salt.

Legend:
mice [1] = experiment: Forced swim test (FST) in mice; assay type: in vivo, Albino Swiss mice; details: for immobility time in FST vs control group: Fig. 1
Procedure: Each mouse was placed individually into a glass cylinder (height 25 cm, diameter 10 cm) containing 12–15 cm of water at 23–25 °C. The animal was left in the cylinder for 6 min. The total duration of immobility was recorded during the last 4 min of the 6-min testing period. The mouse was judged to be immobile when it ceased struggling and remained floating motionless in the water, making only the movements necessary to keep its head above the water level.

mice [2] = experiment: Spontaneous locomotor activity (Opto-Varimex-4 Auto-Track); assay type: in vivo, Albino Swiss mice; details: for Distance traveled: mean ± SEM; for effects on locomotor activity: administered either alone or combined together, doses of Table 2 (traxoprodil 10 and 20 mg/kg), two-way ANOVA
Procedure: In order to avoid the risk of obtaining the false positive/negative effects in the FST caused by a possible influence of the tested drugs on the locomotor activity, spontaneous locomotor activity was measured using an animal activity meter Opto-Varimex-4 Auto-Track (Columbus Instruments, USA). The device consists of four transparent cages with a lid (43 × 43 × 32 cm), a set of four infrared emitters (each emitter has 16 laser beams), and four detectors monitoring animal movements. Each mouse was placed individually into the cage for 10 min. Spontaneous locomotor activity was evaluated between the 2nd and the 6th min, which corresponds with the time interval analyzed in the FST.
The results obtained in this test were presented as an arithmetic average distance (given in cm) traveled by a mouse ± SEM for each experimental group.

[3] = Determination of antidepressants and traxoprodil in brains by HPLC; details: for Antidepressants concentration in brain / concentration at 60 min: 60 min before decapitation, mean ± SEM; for change of concentration in brain tissue after joint administration with traxoprodil: traxoprodil 10 mg/kg co-administered, Student's t-test vs drug + saline; for concentration at 60 min: Albino Swiss, mouse, brain, intraperitoneal
Procedure: Sixty minutes following administration of studied antidepressant drugs with or without traxoprodil, mice were decapitated to collect brains for pharmacokinetic studies. Immediately after the decapitation, the brains were dissected from the skull, washed with 0.9 % NaCl and frozen at −25 °C.
Brain concentrations of the studied antidepressants and traxoprodil were assayed by high performance liquid chromatography (HPLC) methods. The brains were homogenized in distilled water (1 : 4, w/v) with a tissue homogenizer TH220 (Omni International, Inc., Warrenton, VA, USA). For all studied antidepressant drugs, the extraction from brain homogenates were performed using the mixture of ethyl acetate : hexane (30 : 70, v/v). Amitriptyline (2 μg/ml) was used as an internal standard (IS) for imipramine and paroxetine (200 ng/ml) for fluoxetine and escitalopram. In order to isolate imipramine and its metabolite desipramine, to brain homogenate (0.5 ml) containing these drugs the IS was added and the samples were alkalized with 250 μl of 4 M NaOH. Then the samples were extracted with 5 ml of the extraction reagent by shaking for 20 min (IKA Vibrax VXR, Germany). After centrifugation at 3000 rpm for 20 min (Universal 32, Hettich, Germany), the organic layer was transferred to a new tube containing a 200 μl solution of 0.1 M H2SO4 and methanol (90 : 10, v/v), shaken for 0.5 h and then centrifuged for 15 min (3000 rpm). The organic layer was discarded and a 50 μl aliquot of the acidic solution was injected into the HPLC system. In the case of escitalopram, the procedure was similar with the exception that the extraction with an organic reagent was repeated two times, 1 ml of brain homogenate was used, and the volume of the acidic phase was 100 μl. In turn, to 1 ml of brain homogenates containing fluoxetine the IS was added and the samples were alkalized with 500 μl of 4 M NaOH. After the addition of 1 ml of the concentrated NaCl solution (10 g/50 ml), the samples were vortexed for 15 s and 5 ml of the extraction reagent was added. Then the samples were shaken for 20 min and centrifuged for 15 min at 3000 rpm. After the centrifugation, the organic layer was transferred into a conical glass tube and evaporated to dryness at 37 °C under a gentle stream of nitrogen in a water bath. The residue was dissolved with 100 μl of methanol and 50 μl of this solution was injected into the HPLC system.
The HPLC system (Thermo Separation Products, San Jose, CA, USA) consisted of a P100 isocratic pump, a UV100 variable-wavelength UV/VIS detector, a Rheodyne 7125 injector (Rheodyne, Cotati, CA, USA) with a 50 μl sample loop, and a Chromjet SP4400 computing integrator.
All analyses were performed on a 250 × 4.0 mm LiChrospher®100 RP-18 column with a particle size of 5 μm (Merck, Darmstadt, Germany) protected with a guard column (4 × 4 mm) with the same packing material. The mobile phase consisting of 50 mM potassium dihydrogen phosphate buffer (pH = 4.5) and acetonitrile was mixed at a ratio of 60 : 40 (v/v) for imipramine and fluoxetine, and 65 : 35 (v/v) for escitalopram and run at 1 ml/min. Chromatographic analysis was carried out at 21 °C and the analytical wavelength of 227 nm for fluoxetine, 240 nm for escitalopram, and 214 nm for imipramine.
In order to determine traxoprodil concentrations in mice brain, to 1 ml of brain homogenate containing this compound 2 ml of methanol was added and the samples were briefly vortexed and then shaken vigorously for 10 min (IKA Vibrax VXR, Germany) to precipitate proteins. After centrifugation for 20 min at 3000 rpm the supernatant (2 ml) was transferred into a conical glass tube and evaporated to dryness at 45 °C under a gentle stream of nitrogen in a water bath. The residue was dissolved with 100 μl of methanol and 40 μl of this solution were injected into the HPLC system.

mice [4] = system: mice; parameters: method as in Poleszak et al. [2013]; details: ref Poleszak et al. [2013]; cited from earlier work

## N[C@@H](Cc1ccc(Cl)cc1)C(=O)O (racemic) [p-CPA, p-chlorophenylalanine]
Mice [1]; p-CPA 200 mg/kg i.p. per 3 days, alone, Fig. 3a
  immobility time in FST: no effect
Mice [2]; Table 2 (E): p-CPA 200 mg/kg i.p. once daily over three days + saline
  Distance traveled: 656.4 ± 107.4 cm
Mice [2]
  effects on locomotor activity: no statistically significant effects

## COc1ccccc1N1CCN(CCN(C(=O)C2CCCCC2)c2ccccn2)CC1 [WAY 100,635]
Mice [1]; WAY 100,635 0.1 mg/kg i.p. alone, Fig. 3b
  immobility time in FST: no effect
Mice [2]; Table 2 (F): WAY 0.1 mg/kg + saline i.p.
  Distance traveled: 639.0 ± 59.16 cm
Mice [2]
  effects on locomotor activity: no statistically significant effects

## CNCCCN1c2ccccc2CCc2ccccc21 [desipramine]
[3]; imipramine 15 mg/kg + saline i.p., n=10
  Antidepressants concentration in brain: (101.0 ± 19.86) ng/g
[3]; imipramine 15 mg/kg + traxoprodil 10 mg/kg i.p., n=10
  Antidepressants concentration in brain: (724.0 ± 109.0***) ng/g
[3]
  change of concentration in brain tissue after joint administration with traxoprodil: significant increase

## CN(C)CCC[C@@]1(c2ccc(F)cc2)OCc2cc(C#N)ccc21 [escitalopram, escitalopram oxalate]
Mice [1]; escitalopram 2 mg/kg given alone i.p., Fig. 2c
  immobility time in FST: no effect
Mice [2]; Table 2 (C): escitalopram 2 mg/kg + saline i.p.
  Distance traveled: 957.1 ± 174.1 cm
Mice [2]
  effects on locomotor activity: no statistically significant effects
[3]; 2 mg/kg, Antidepressants concentration in brain, escitalopram 2 mg/kg + saline i.p., n=10
  concentration at 60 min: 296 ± 17.7 ng/g
[3]; Antidepressants concentration in brain, escitalopram 2 mg/kg + traxoprodil 10 mg/kg i.p., n=10
  concentration at 60 min: 361 ± 20.5 ng/g
[3]
  change of concentration in brain tissue after joint administration with traxoprodil: significant increase

## CNCCC(Oc1ccc(C(F)(F)F)cc1)c1ccccc1 (centres unmarked) [fluoxetine, fluoxetine hydrochloride]
Mice [1]; fluoxetine 5 mg/kg given alone i.p., Fig. 2b
  immobility time in FST: no effect
Mice [2]; Table 2 (B): fluoxetine 5 mg/kg + saline i.p.
  Distance traveled: 667.8 ± 111.1 cm
Mice [2]
  effects on locomotor activity: no statistically significant effects

## CC(C(O)c1ccc(O)cc1)N1CCC(Cc2ccccc2)CC1 (centres unmarked) [ifenprodil]
Mice [4]
  dose range with antidepressant effect in the FST: 20 to 40 mg/kg

## CN(C)CCCN1c2ccccc2CCc2ccccc21 [imipramine, imipramine hydrochloride]
Mice [1]; imipramine 15 mg/kg given alone i.p., Fig. 2a
  immobility time in FST: no effect
Mice [2]; Table 2 (A): imipramine 15 mg/kg + saline i.p.
  Distance traveled: 492.3 ± 57.11 cm
Mice [2]
  effects on locomotor activity: no statistically significant effects
Mice [2]; imipramine 30 mg/kg i.p. 60 min before test, 2nd-6th min, n=8, Table 1
  Distance traveled: 653.9 ± 99.38 cm
[3]; 15 mg/kg, Antidepressants concentration in brain, imipramine 15 mg/kg + saline i.p., n=10
  concentration at 60 min: 2060 ± 253 ng/g
[3]; Antidepressants concentration in brain, imipramine 15 mg/kg + traxoprodil 10 mg/kg i.p., n=10
  concentration at 60 min: 3210 ± 374 ng/g

## CCOc1ccccc1OC(c1ccccc1)C1CNCCO1 (centres unmarked) [reboxetine, reboxetine mesylate]
Mice [1]; reboxetine 2.5 mg/kg given alone i.p., Fig. 2d
  immobility time in FST: no effect
Mice [2]; Table 2 (D): reboxetine 2.5 mg/kg + saline i.p.
  Distance traveled: 566.1 ± 54.75 cm

## Cc1nc2sccn2c(=O)c1CCN1CCC(=C(c2ccc(F)cc2)c2ccc(F)cc2)CC1 [ritanserin]
Mice [1]; ritanserin 4 mg/kg i.p. alone, Fig. 3c
  immobility time in FST: no effect
Mice [2]; Table 2 (G): ritanserin 4 mg/kg + saline i.p.
  Distance traveled: 607.5 ± 79.78 cm
Mice [2]
  effects on locomotor activity: no statistically significant effects

## C[C@@H]([C@@H](O)c1ccc(O)cc1)N1CCC(O)(c2ccccc2)CC1 [traxoprodil]
Mice [1]; highest traxoprodil dose used (40 mg/kg) vs imipramine 30 mg/kg
  FST effect compared with imipramine at an active dose: effect similar to the action of imipramine
Mice [1]; traxoprodil 5 mg/kg i.p. 60 min before test
  immobility time in FST vs control group: no statistically significant effect
Mice [1]; traxoprodil 10 mg/kg given alone i.p., Fig. 2a
  immobility time in FST: no effect
Mice [1]; traxoprodil 10 mg/kg i.p. 60 min before test
  immobility time in FST vs control group: no statistically significant effect
Mice [1]; traxoprodil 20 mg/kg i.p. 60 min before test
  immobility time in FST vs control group: significantly reduced
Mice [1]; traxoprodil 20 mg/kg i.p., WAY 100,635 experiment, Fig. 3b
  immobility time in FST: significantly reduced
Mice [1]; traxoprodil 20 mg/kg i.p., p-CPA experiment, Fig. 3a
  immobility time in FST: significantly reduced
Mice [1]; traxoprodil 20 mg/kg i.p., ritanserin experiment, Fig. 3c
  immobility time in FST: significantly reduced
Mice [1]; traxoprodil 40 mg/kg i.p. 60 min before test
  immobility time in FST vs control group: significantly reduced
Mice [2]; Table 2 (A): traxoprodil 10 mg/kg + saline i.p.
  Distance traveled: 629.1 ± 79.29 cm
Mice [2]; Table 2 (B): traxoprodil 10 mg/kg + saline i.p.
  Distance traveled: 629.1 ± 79.29 cm
Mice [2]; Table 2 (C): traxoprodil 10 mg/kg + saline i.p.
  Distance traveled: 986.8 ± 278.5 cm
Mice [2]; Table 2 (D): traxoprodil 10 mg/kg + saline i.p.
  Distance traveled: 629.1 ± 79.29 cm
Mice [2]; Table 2 (E): traxoprodil 20 mg/kg + saline i.p.
  Distance traveled: 731.1 ± 145.1 cm
Mice [2]; Table 2 (F): traxoprodil 20 mg/kg + saline i.p.
  Distance traveled: 687.5 ± 71.45 cm
Mice [2]; Table 2 (G): traxoprodil 20 mg/kg + saline i.p.
  Distance traveled: 687.5 ± 71.45 cm
Mice [2]
  effects on locomotor activity: no statistically significant effects
Mice [2]; all tested doses (5, 10, 20, and 40 mg/kg), one-way ANOVA
  effect on locomotor activity versus control group: no statistically significant effect
Mice [2]; traxoprodil 5 mg/kg i.p. 60 min before test, 2nd-6th min, n=8, Table 1
  Distance traveled: 915.0 ± 92.10 cm
Mice [2]; traxoprodil 10 mg/kg i.p. 60 min before test, 2nd-6th min, n=8, Table 1
  Distance traveled: 738.5 ± 49.93 cm
Mice [2]; traxoprodil 20 mg/kg i.p. 60 min before test, 2nd-6th min, n=8, Table 1
  Distance traveled: 912.0 ± 75.87 cm
Mice [2]; traxoprodil 40 mg/kg i.p. 60 min before test, 2nd-6th min, n=8, Table 1
  Distance traveled: 789.1 ± 119.8 cm
[3]; 10 mg/kg, Traxoprodil concentration in brain, traxoprodil 10 mg/kg + saline ip, n=7–8
  concentration at 60 min: 76.4 ± 13.5 ng/g
[3]; Traxoprodil concentration in brain, traxoprodil 10 mg/kg + escitalopram 2 mg/kg ip
  concentration at 60 min: 249 ± 49.2 ng/g
[3]; Traxoprodil concentration in brain, traxoprodil 10 mg/kg + fluoxetine 5 mg/kg ip
  concentration at 60 min: 151 ± 10.3 ng/g
[3]; Traxoprodil concentration in brain, traxoprodil 10 mg/kg + imipramine 15 mg/kg ip
  concentration at 60 min: 119 ± 22.5 ng/g
[3]; joint administration with escitalopram vs traxoprodil group, t-test p < 0.01
  change of traxoprodil concentration in brain: significant increase
[3]; joint administration with fluoxetine vs traxoprodil group, t-test p < 0.001
  change of traxoprodil concentration in brain: significant increase
[3]; joint administration with imipramine vs traxoprodil group, t-test p > 0.05
  change of traxoprodil concentration in brain: No statistically significant changes
